Literature values, collected in patent US20060251722A1, “Multi-component vitamin and mineral supplement for the optimal absorption of components” (Novavax, Inc., priority 2005, published 2006).

Settings: rat, in vivo, po

carbonyl iron
bioavailability relative to other elemental iron forms: 2-5 times
